# Test system: LPS-induced TNF-α release in peripheral blood mononuclear cells (PBMCs)
# Assay: In vitro determination of PDE4 inhibitory activity in the PBMCs assay (LPS-induced TNF-α release)
# Format: cell-based, human
# Settings: PBMC; human PBMCs, LPS 3 ng/ml, 18 hours, TNF-α by ELISA; read-out: PDE4 inhibition (IC50, 50% inhibition of LPS-induced TNF-α release)
# Method: The assay, which is based on the known inhibitory activity exerted by PDE4 inhibitors on the lipopolyshaccarides (LPS)-induced tumour necrosis factor-alpha (TNF-α release in peripheral blood mononuclear cells (PBMCs), was performed according to a method previously described (Hatzelmann A et al., J. Pharmacol. Exp. Ther., 2001; 297:267-279; and Draheim R et al., J. Pharmacol. Exp. Ther., 2004; 308:555-563, which are incorporated herein by reference in their entireties). Cryopreserved human PBMCs, (100 l/well) were incubated in 96-well plates (10^5 cells/well), for 30 minutes, in the presence or absence (50 microl) of the test compounds whose concentrations ranged from 10^−12 M to 10^−6 M or from […] to 10^−7 M. Subsequently, LPS (3 ng/ml) was added.
# After 18 hours of incubation at 37° C. in a humidified incubator under an atmosphere of 95% air and 5% CO2, culture medium was collected and TNF-α measured by ELISA. The results of the tested compounds, representatives of the invention, expressed as mean±95% confidence limits of the molar concentration of the test compound producing 50% inhibition of LPS-induced TNF-α release (IC50) are shown in the following Table: […]
row,SMILES,IC50 [nM]
1,"COc1ccc([C@H](Cc2c(Cl)c[n+]([O-])cc2Cl)OC(=O)[C@@H]2CCCN2S(=O)(=O)c2cccc(C(=O)N(C)C)c2)cc1OC [Compound 310, 3,5-dichloro-4-((S)-2-(3,4-dimethoxyphenyl)-2-((S)-1-(3-(dimethylcarbamoyl)phenylsulfonyl)pyrrolidine-2-carbonyloxy)ethyl)pyridine 1-oxide]",< 0.1
2,"CN(C)C(=O)c1cccc(S(=O)(=O)N2CCOC(C(=O)O[C@@H](Cc3c(Cl)c[n+]([O-])cc3Cl)c3ccc(OC(F)F)c(OCC4CC4)c3)C2)c1 (stereo partly drawn) [Compound 78, 3,5-dichloro-4-((2S)-2-(3-(cyclopropylmethoxy)-4-(difluoromethoxy)phenyl)-2-(4-(3-(dimethylcarbamoyl)phenylsulfonyl)morpholine-2-carbonyloxy)ethyl)pyridine 1-oxide]",0.1 to 1
3,"COc1ccc(C(=O)N2CCSC2C(=O)O[C@@H](Cc2c(Cl)c[n+]([O-])cc2Cl)c2ccc(OC(F)F)c(OCC3CC3)c2)cc1S(=O)(=O)N(C)C (stereo partly drawn) [Compound 32, 3,5-dichloro-4-((2S)-2-(3-(cyclopropylmethoxy)-4-(difluoromethoxy)phenyl)-2-(3-(3-(N,N-dimethylsulfamoyl)-4-methoxybenzoyl)thiazolidine-2-carbonyloxy)ethyl)pyridine 1-oxide]",0.1 to 1
4,"O=C(O[C@@H](Cc1c(Cl)c[n+]([O-])cc1Cl)c1ccc(OC(F)F)c(OCC2CC2)c1)[C@@H]1CCCCN1S(=O)(=O)c1ccccc1 [Compound 114, 3,5-dichloro-4-((S)-2-(3-(cyclopropylmethoxy)-4-(difluoromethoxy)phenyl)-2-((S)-1-(phenylsulfonyl)piperidine-2-carbonyloxy)ethyl)pyridine 1-oxide]",0.1 to 1
5,"O=C(O)c1cccc(S(=O)(=O)N2CCSC2C(=O)O[C@@H](Cc2c(Cl)c[n+]([O-])cc2Cl)c2ccc(OC(F)F)c(OCC3CC3)c2)c1 (single isomer, unassigned) [Compound 75, 4-((S)-2-((S)-3-(3-carboxyphenylsulfonyl)thiazolidine-2-carbonyloxy)-2-(3-(cyclopropylmethoxy)-4-(difluoromethoxy)phenyl)ethyl)-3,5-dichloropyridine 1-oxide or 4-((S)-2-((R)-3-(3-carboxyphenylsulfonyl)thiazolidine-2-carbonyloxy)-2-(3-(cyclopropylmethoxy)-4-(difluoromethoxy)phenyl)ethyl)-3,5-dichloropyridine 1-oxide]",0.1 to 1
6,"CN(C)C(=O)c1cccc(S(=O)(=O)N2CCCC[C@H]2C(=O)O[C@@H](Cc2c(Cl)c[n+]([O-])cc2Cl)c2ccc(OC(F)F)c(OCC3CC3)c2)c1 [Compound 82, 3,5-dichloro-4-((S)-2-(3-(cyclopropylmethoxy)-4-(difluoromethoxy)phenyl)-2-((S)-1-(3-(dimethylcarbamoyl)phenylsulfonyl)piperidine-2-carbonyloxy)ethyl)pyridine 1-oxide]",< 0.1
7,"CN(C)Cc1cccc(C(=O)N2CCSC2C(=O)O[C@@H](Cc2c(Cl)c[n+]([O-])cc2Cl)c2ccc(OC(F)F)c(OCC3CC3)c2)c1 (stereo partly drawn) [Compound 34, 3,5-dichloro-4-((2S)-2-(3-(cyclopropylmethoxy)-4-(difluoromethoxy)phenyl)-2-(3-(3-((dimethylamino)methyl)benzoyl)thiazolidine-2-carbonyloxy)ethyl)pyridine 1-oxide]",0.1 to 1
8,CN(C)C(=O)c1cccc(S(=O)(=O)N2CCC[C@@H](C(=O)O[C@@H](Cc3c(Cl)c[n+]([O-])cc3Cl)c3ccc(OC(F)F)c(OCC4CC4)c3)C2)c1 [Compound 228],0.1 to 1
9,"N#Cc1cccc(S(=O)(=O)N2CCS[C@H]2C(=O)O[C@@H](Cc2c(Cl)c[n+]([O-])cc2Cl)c2ccc(OC(F)F)c(OCC3CC3)c2)c1 [Compound 207, 3,5-dichloro-4-((S)-2-((S)-3-(3-cyanophenylsulfonyl)thiazolidine-2-carbonyloxy)-2-(3-(cyclopropylmethoxy)-4-(difluoromethoxy)phenyl)ethyl)pyridine 1-oxide]",0.1 to 1
10,O=C(O[C@@H](Cc1c(Cl)c[n+]([O-])cc1Cl)c1ccc(OC(F)F)c(OCC2CC2)c1)[C@@H]1SCCN1C(=O)c1ccc(N2CCS(=O)(=O)CC2)cc1 [Compound 36],0.1 to 1
11,"CN1CCN(C(=O)c2ccc(S(=O)(=O)N3CCSC3C(=O)O[C@@H](Cc3c(Cl)c[n+]([O-])cc3Cl)c3ccc(OC(F)F)c(OCC4CC4)c3)cc2)CC1 (stereo partly drawn) [Compound 126, 3,5-dichloro-4-((2S)-2-(3-(cyclopropylmethoxy)-4-(difluoromethoxy)phenyl)-2-(3-(4-(4-methylpiperazine-1-carbonyl)phenylsulfonyl)thiazolidine-2-carbonyloxy)ethyl)pyridine 1-oxide]",0.1 to 1
12,"Cc1noc(C)c1S(=O)(=O)N1CCSC1C(=O)O[C@@H](Cc1c(Cl)c[n+]([O-])cc1Cl)c1ccc(OC(F)F)c(OCC2CC2)c1 (stereo partly drawn) [Compound 76, 3,5-dichloro-4-((2S)-2-(3-(cyclopropylmethoxy)-4-(difluoromethoxy)phenyl)-2-(3-(3,5-dimethylisoxazol-4-ylsulfonyl)thiazolidine-2-carbonyloxy)ethyl)pyridine 1-oxide]",0.1 to 1
13,"Cc1cc(S(=O)(=O)N2CCS[C@H]2C(=O)O[C@@H](Cc2c(Cl)c[n+]([O-])cc2Cl)c2ccc(OC(F)F)c(OCC3CC3)c2)c(C)s1 [Compound 203, 3,5-dichloro-4-((S)-2-(3-(cyclopropylmethoxy)-4-(difluoromethoxy)phenyl)-2-((S)-3-(2,5-dimethylthiophen-3-ylsulfonyl)thiazolidine-2-carbonyloxy)ethyl)pyridine 1-oxide]",0.1 to 1
14,"CN(C)C(=O)c1cccc(S(=O)(=O)N2CCSC2C(=O)O[C@@H](Cc2c(Cl)c[n+]([O-])cc2Cl)c2ccc(OC(F)F)c(OCC3CC3)c2)c1 (stereo partly drawn) [Compound 56, 3,5-dichloro-4-((2S)-2-(3-(cyclopropylmethoxy)-4-(difluoromethoxy)phenyl)-2-(3-(3-(dimethylcarbamoyl)phenylsulfonyl)thiazolidine-2-carbonyloxy)ethyl)pyridine 1-oxide]",< 0.1
15,"COc1cccc(S(=O)(=O)N2CCS[C@H]2C(=O)O[C@@H](Cc2c(Cl)c[n+]([O-])cc2Cl)c2ccc(OC(F)F)c(OCC3CC3)c2)c1 [Compound 103, 3,5-dichloro-4-((S)-2-(3-(cyclopropylmethoxy)-4-(difluoromethoxy)phenyl)-2-((S)-3-(3-methoxyphenylsulfonyl)thiazolidine-2-carbonyloxy)ethyl)pyridine 1-oxide]",0.1 to 1
16,"CN1CCOc2ccc(S(=O)(=O)N3CCS[C@H]3C(=O)O[C@@H](Cc3c(Cl)c[n+]([O-])cc3Cl)c3ccc(OC(F)F)c(OCC4CC4)c3)cc21 [Compound 108, 3,5-dichloro-4-((S)-2-(3-(cyclopropylmethoxy)-4-(difluoromethoxy)phenyl)-2-((S)-3-(4-methyl-3,4-dihydro-2H-benzo[b][1,4]oxazin-6-ylsulfonyl)thiazolidine-2-carbonyloxy)ethyl)pyridine 1-oxide]",0.1 to 1
17,"O=C(O[C@@H](Cc1c(Cl)c[n+]([O-])cc1Cl)c1ccc(OC(F)F)c(OCC2CC2)c1)C1SCCN1C(=O)c1cncs1 (stereo partly drawn) [Compound 38, 3,5-dichloro-4-((2S)-2-(3-(cyclopropylmethoxy)-4-(difluoromethoxy)phenyl)-2-(3-(thiazole-5-carbonyl)thiazolidine-2-carbonyloxy)ethyl)pyridine 1-oxide]",< 0.1

# Reference: patent US9931327B2, “Derivatives of 1-phenyl-2-pyridinyl alkyl alcohols as phosphodiesterase inhibitors” (Chiesi Farmaceutici S.p.A., priority 2011, dated 2018)
